One assay has as its target T1, heart form of human NBC1 (Homo sapiens, UniProt Q9Y6R1).
T1 construct: expressed in transfected cells
T1 sequence (Q9Y6R1 1-1079): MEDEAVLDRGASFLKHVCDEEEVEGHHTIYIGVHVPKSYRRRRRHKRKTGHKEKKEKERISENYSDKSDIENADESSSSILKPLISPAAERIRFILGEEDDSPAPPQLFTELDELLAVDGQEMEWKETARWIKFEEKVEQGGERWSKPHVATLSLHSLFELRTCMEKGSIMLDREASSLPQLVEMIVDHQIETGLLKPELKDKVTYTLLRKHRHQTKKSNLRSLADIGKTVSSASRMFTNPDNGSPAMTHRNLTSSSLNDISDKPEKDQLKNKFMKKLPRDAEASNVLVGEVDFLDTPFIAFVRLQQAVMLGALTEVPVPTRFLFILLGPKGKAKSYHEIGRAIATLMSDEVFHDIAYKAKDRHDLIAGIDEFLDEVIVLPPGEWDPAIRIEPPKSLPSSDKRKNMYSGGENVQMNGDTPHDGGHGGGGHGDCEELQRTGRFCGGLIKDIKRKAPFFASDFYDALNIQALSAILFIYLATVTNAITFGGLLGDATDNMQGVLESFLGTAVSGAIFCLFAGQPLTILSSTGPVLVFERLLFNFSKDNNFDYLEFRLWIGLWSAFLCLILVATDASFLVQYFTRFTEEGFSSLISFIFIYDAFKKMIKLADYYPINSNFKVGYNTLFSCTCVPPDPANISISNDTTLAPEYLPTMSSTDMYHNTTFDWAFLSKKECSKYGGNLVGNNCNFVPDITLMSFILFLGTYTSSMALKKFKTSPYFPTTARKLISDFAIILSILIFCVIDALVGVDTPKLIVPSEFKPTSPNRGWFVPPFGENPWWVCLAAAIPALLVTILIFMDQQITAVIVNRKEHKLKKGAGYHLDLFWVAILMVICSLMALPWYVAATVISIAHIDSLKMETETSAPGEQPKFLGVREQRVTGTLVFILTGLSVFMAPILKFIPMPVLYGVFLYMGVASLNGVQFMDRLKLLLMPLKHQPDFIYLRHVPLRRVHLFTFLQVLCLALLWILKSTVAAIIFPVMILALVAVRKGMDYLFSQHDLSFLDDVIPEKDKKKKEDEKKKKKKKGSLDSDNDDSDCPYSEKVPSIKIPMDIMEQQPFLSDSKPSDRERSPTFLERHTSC
Nature of the assay: NBC activity measurement (pHi recovery after acid load, BCECF, FLIPR). The conditions noted are these: residual NBC activity at inhibitor concentration of 10 μM; CHO K1 cells transfected with heart form of human NBC1; NHE and NCBE blocked; duplicate determinations. Type of assay: cell-based. The source says:
Firstly, the heart form of human NBC1 was cloned by RT-PCR. After confirmation of the sequence, the corresponding cDNAs were cloned into the vector pcDNA3.1+, which contains the neo gene as a selection marker for eukaryotic cells. For the amplification of the human heart form of NBC1, human heart mRNA (Clontech, Palo Alto, Calif., USA) was amplified using primers which cover the area in which the heart form differs from the kidney form. The heart form in this case differs only at the 5′ end of the coding sequence. The area coding for the first 41 amino acids of the kidney form is replaced in the heart form by an area coding for 85 amino acids (positions 118-370 from Abukadze et al., J. Biol. Chem. 273,17689-17695 (1998) or positions 45-294 from Choi et al., Am. J. Physiol. Cell Physiol. 276, C576-C584 (1999) replace positions 150-270 from Burnham et al. (see above.), J. Biol. Chem. 272, 19 111-19 114 (1997). The product of the PCR reaction was first cloned into the vector pCR2.1 and, after verification of the sequence, cloned into the cDNA of the kidney form of NBC1 by means of cleavage sites introduced by means of the PCR reaction. The construct obtained was checked for correct incorporation of the human heart NBC1-cDNA by sequencing. The plasmids obtained for the heart form of human NBC1 were transfected by means of the LipofectAmine™ reagent of the company LifeTechnologies (Gaithersburg, Md., USA) into the cell line CHO K1 (ovary cells of the Chinese hamster), which has no measurable NBC activity. After selection for transfected cells by means of growth in G418-containing medium (only cells which have obtained a neo gene by transfection can survive under these conditions), individual cells were isolated and cultured. Using the test described below, cell clones were identified in FLIPR which have a clear NBC activity. The best cell lines were used for the further tests and, to avoid a loss of the transfected sequence, cultured in G418-containing medium under continuous selection pressure.
For the determination of the inhibitory activity of the active compounds on the heart form of human NBC 1, a test was constructed which represents a further development of the assay constructed for the testing of inhibitors of NCBE (Na^+dependent Cl^−/HCO3− exchanger) (EP 0 903 339) based on the acid load method (Sardet et al., Cell 56, 271-280 (1989); Faber et al., Cell. Physiol. Biochem. 6, 39-49 (1996). In this test, the recovery of the intracellular pH (pHi) after prior acidification is determined under conditions in which the NBC is active, the other pHiregulating systems of the CHO cells such as NHE (Na^+/H^+ exchanger) and NCBE (Na^+-dependent Cl^−/HCO3− exchanger) are blocked, however, by specific inhibitors. In this way, it is ensured that the recovery of the intracellular pH observed is based on the activity of NBC1.
The transfected cells were inoculated into 96 well microtiter plates in a density of about 15,000 cells/well in 200 μl of growth medium and incubated overnight at 37° C. in a CO2 incubator. The intracellular pH of the transfected cells was determined using the pH-sensitive fluorescent dye BCECF (Molecular Probes (Eugene, Oreg., USA), the precursor BCECF-AM is employed). The cells were first loaded with BCECF-AM. The growth medium of the cells inoculated on the day before was manually removed, since the fetal calf serum present in the medium could interfere with the BCECF staining. For staining, 100 μl of NH4Cl stain buffer (20 mM NH4Cl, 115 mM NaCl, 1 mM MgSO4, 1 mM CaCl2, 5 mM KCl, 20 mMHEPES, 5 mM glucose; pH adjusted to 7.4 using 1 M NaOH) was added to the cells of each well, which contains 5 μM BCECF-AM. The cells were incubated with the stain solution at 37° C. in a CO2 incubator for 20 minutes. […]

The subject of assay [1] is isolated beating rat heart. In words: ischemia/reperfusion model (isolated beating rat heart). The conditions noted are these: combination of the NBC blocker with the NHE inhibitor cariporide mesilate.

The source of these data is US6593352B2, “Substituted anthranilic acids, their use as a medicament or diagnostic, and medicament comprising them, and a pharmaceutical combination preparation containing a sodium/hydrogen exchange (NHE) blocker” (Aventis Pharma Deutschland GmbH, priority 2000, dated 2003).

On to “4-(4-Methylphenyl)-5-(3-chloro-4-fluorobenzylsulfamoyl)-2-phenylbutylaminobenzoic acid [Example 7]”, for which the “residual activity [%] at 10 μM” value at heart form of human NBC1 is listed as 95%.

Regarding “4-Chloro-5-(cyclohexylmethylsulfamoyl)-2-phenylbutylaminobenzoic acid [Example 20]”, on heart form of human NBC1, the “residual activity [%] at 10 μM” value was determined as 89%.

As for “4-Chloro-5-(phenylbutylsulfamoyl)-2-phenylbutylaminobenzoic Acid [Example 19]”, the “residual activity [%] at 10 μM” value on heart form of human NBC1 was 77%.

Turning to “4-Chloro-5-[(5-methylfuran-2-ylmethyl)sulfamoyl]-2-phenylbutylaminobenzoic acid [Example 15]”, the “residual activity [%] at 10 μM” value at heart form of human NBC1 was determined as 79%.

Take `O=C(O)c1cc(S(=O)(=O)NCc2ccc(F)c(Cl)c2)c(Cl)cc1NCCCCc1ccccc1` [Example 1, 4-Chloro-5-(3-chloro-4-fluorobenzylsulfamoyl)-2-phenylbutylaminobenzoic acid]: the cardioprotective action result in assay [1] is “greater than additive cardioprotective action”. The “residual activity [%] at 10 μM” value on heart form of human NBC1 stood at 46%.

Consider `O=C(O)c1cc(S(=O)(=O)NCc2ccc(F)c(Cl)c2)c(Br)cc1NCCCCc1ccccc1` [Example 2, 4-Bromo-5-(3-chloro-4-fluorobenzylsulfamoyl)-2-phenylbutylaminobenzoic acid], for which, on heart form of human NBC1, the “residual activity [%] at 10 μM” value worked out at 56%.

Take `O=C(O)c1cc(S(=O)(=O)NCc2ccc(F)c(Cl)c2)ccc1NCCCCc1ccccc1` [Example 3, 5-(3-Chloro-4-fluorobenzylsulfamoyl)-2-phenylbutylaminobenzoic acid]: the “residual activity [%] at 10 μM” value at heart form of human NBC1 was 88%.

Consider `Cc1cc(NCCCCc2ccccc2)c(C(=O)O)cc1S(=O)(=O)NCc1ccc(F)c(Cl)c1` [Example 4, 4-Methyl-5-(3-chloro-4-fluorobenzylsulfamoyl)-2-phenylbutylaminobenzoic acid], for which, at heart form of human NBC1, the “residual activity [%] at 10 μM” value is recorded as 54%.

Consider `CC(C)c1cc(NCCCCc2ccccc2)c(C(=O)O)cc1S(=O)(=O)NCc1ccc(F)c(Cl)c1` [Example 5, 4-isopropyl-5-(3-chloro-4-fluorobenzylsulfamoyl)-2-phenylbutylaminobenzoic acid], for which the “residual activity [%] at 10 μM” value on heart form of human NBC1 is on record as 78%.

For the compound `CCCc1cc(NCCCCc2ccccc2)c(C(=O)O)cc1S(=O)(=O)NCc1ccc(F)c(Cl)c1` [Example 6, 4-n-Propyl-5-(3-chloro-4-fluorobenzylsulfamoyl)-2-phenylbutylaminobenzoic acid], the “residual activity [%] at 10 μM” value on heart form of human NBC1 is on record as 69%.

Take `O=C(O)c1cc(S(=O)(=O)NCc2ccncc2)c(Cl)cc1NCCCCc1ccccc1` [Example 8, 4-Chloro-2-phenylbutylamino-5-[(pyridin-4-ylmethyl)sulfamoyl]benzoic acid]: the “residual activity [%] at 10 μM” value on heart form of human NBC1 is reported as 89%.

For the compound `O=C(O)c1cc(S(=O)(=O)NCc2ccccn2)c(Cl)cc1NCCCCc1ccccc1` [Example 9, 4-Chloro-2-phenylbutylamino-5-[(pyridin-2-ylmethyl)sulfamoyl]benzoic acid], at heart form of human NBC1, the “residual activity [%] at 10 μM” value was found to be 89%.

As to `O=C(O)c1cc(S(=O)(=O)NCc2cccc(Cl)c2)c(Cl)cc1NCCCCc1ccccc1` [Example 10, 4-Chloro-2-phenylbutylamino-5-(3-chlorobenzylsulfamoyl)benzoic Acid], the “residual activity [%] at 10 μM” value at heart form of human NBC1 turned out to be 75%.

Take `NS(=O)(=O)c1ccc(CNS(=O)(=O)c2cc(C(=O)O)c(NCCCCc3ccccc3)cc2Cl)cc1` [Example 11, 4-Chloro-2-phenylbutylamino-5-(4-sulfamoylbenzylsulfamoyl)benzoic acid]: the “residual activity [%] at 10 μM” value on heart form of human NBC1 turned out to be 81%.

For the compound `O=C(O)c1cc(S(=O)(=O)NCc2cccc(Cl)c2Cl)c(Cl)cc1NCCCCc1ccccc1` [Example 12, 4-Chloro-2-phenylbutylamino-5-(2,3-dichlorobenzylsulfamoyl)benzoic acid], on heart form of human NBC1, the “residual activity [%] at 10 μM” value amounted to 37%.

As to `O=C(O)c1cc(S(=O)(=O)NCc2ccc(Cl)cc2Cl)c(Cl)cc1NCCCCc1ccccc1` [Example 13, 4-Chloro-2-phenylbutylamino-5-(2,4-dichlorobenzylsulfamoyl)benzoic acid], the “residual activity [%] at 10 μM” value at heart form of human NBC1 stood at 60%.

Consider `O=C(O)c1cc(S(=O)(=O)NCc2c(F)cccc2Cl)c(Cl)cc1NCCCCc1ccccc1` [Example 14, 4-Chloro-2-phenylbutylamino-5-(2-chloro-6-fluorobenzylsulfamoyl)benzoic acid], for which the “residual activity [%] at 10 μM” value on heart form of human NBC1 amounted to 87%.

With `O=C(O)c1cc(S(=O)(=O)NCCc2ccc(Cl)cc2)c(Cl)cc1NCCCCc1ccccc1` [Example 16, 4-Chloro-5-[2-(4-chlorophenyl)ethylsulfamoyl]-2-phenylbutylaminobenzoic acid], the “residual activity [%] at 10 μM” value at heart form of human NBC1 was determined as 91%.

As to `O=C(O)c1cc(S(=O)(=O)NCCc2cccs2)c(Cl)cc1NCCCCc1ccccc1` [Example 17, 4-Chloro-2-phenylbutylamino-5-(2-thiophen-2-ylethylsulfamoyl)benzoic acid], the “residual activity [%] at 10 μM” value on heart form of human NBC1 is recorded as 95%.

Consider `CCc1ccc(NS(=O)(=O)c2cc(C(=O)O)c(NCCCCc3ccccc3)cc2Cl)cc1` [Example 18, 4-Chloro-5-(4-ethylphenylsulfamoyl)-2-phenylbutylaminobenzoic acid], for which the “residual activity [%] at 10 μM” value at heart form of human NBC1 was determined as 79%.

As for `CC(C)CNS(=O)(=O)c1cc(C(=O)O)c(NCCCCc2ccccc2)cc1Cl` [Example 21, 4-Chloro-5-(isobutylsulfamoyl)-2-phenylbutylaminobenzoic acid], on heart form of human NBC1, the “residual activity [%] at 10 μM” value is 94%.
